Earlier results as cited in patent publication US9101669B2, “Self-assembed conjugate and use thereof” (POSTECH ACADEMY-INDUSTRY FOUNDATION, priority 2012, dated 2015).

Conditions: 1 to 1 host-guest complex, protonated forms, aqueous solution

| SMILES | binding constant |
| --- | --- |
| NCCCCCCN [DAH, 1,6-diaminohexane] | up to 10^10 M^−1 |
| NCCCNCCCCNCCCN [SPM, spermine] | ≤ 10^12 M^−1 |
